How the values were obtained:
[1] = tested on: histone deacetylase (HDAC); assay: HDAC inhibition screening assay using an aminocoumarin derivative of an omega-acetylated lysine as substrate; assay type: biochemical; conditions: compound concentration 10 nM
Procedure: To measure the inhibitory properties of the compounds of the invention, a screening assay was performed using an aminocoumarin derivative of an omega-acetylated lysine as substrate for the enzmye. This assay has been described in detail in the literature (Hoffmann, K., et al., Nucleic Acids Res. 27 (1999)2057-2058). Using the protocol described therein, there was measured the inhibitory effect of the compounds at a concentration of 10 nM.

| Compound | Inhibitory effect at 10 nM in % [1] | melting point |
| --- | --- | --- |
| O=C(CCCCCCCOc1ccc2c(c1)C(O)c1ccccc1-2)NO (racemic) [Example 2, rac-8-(9-Hydroxy-9H-fluoren-2-yloxy)-octanoic Acid Hydroxyamide] | 79% |  |
| O=C(CCCCCCCOc1ccc2c(c1)C(=O)c1ccccc1CO2)NO [Example 1, 8-(11-Oxo-6,1 1-Dihydro-dibenzo[b,e]oxepin-2-yloxy)-octanoic Acid Hydroxyamide] | 62% |  |
| O=C(CCCCCCCOc1ccc2c(c1)[nH]c1ccccc12)NO [Example 3, 8-(9H-Carbazol-2-yloxy)-octanoic Acid Hydroxyamide] | 86% |  |
| O=C(CCCCCCCOc1cccc2[nH]c3ccccc3c12)NO [Example 4, 8-(9H-Carbazol-4-yloxy)-octanoic Acid Hydroxyamide] | 97% |  |
| O=C(CCCCCCOc1ccc2c(c1)[nH]c1ccccc12)NO [Example 5, 7-(9H-Carbazol-2-yloxy)-heptanoic Acid Hydroxyamide] | 100% | 198 °C |
| O=C(CCCCCOc1ccc2c(c1)[nH]c1ccccc12)NO [Example 6, 6-(9H-Carbazol-2-yloxy)-hexanoic Acid Hydroxyamide] | 80% | 192 °C |
| O=C(CCCCOc1ccc2c(c1)[nH]c1ccccc12)NO [Example 7, 5-(9H-Carbazol-2-yloxy)-pentanoic Acid Hydroxyamide] | 69% |  |

Source: patent US6512123B2, “Tricyclic alkylhydroxamate derivatives” (Hoffmann-La Roche Inc., priority 2001, dated 2003)
